Test results taken from US7951530B2, “Cyclic maltosylmaltose, cyclic maltosymaltose-forming enzyme, their preparation and uses” (Kabushiki Kaisha Hayashibara Seibutsu Kagaku Kenkyujo, priority 2003, dated 2011).

Key:
CMM-forming enzyme = experiment: Action on various saccharides (substrate specificity, TLC); format: biochemical, Arthrobacter globiformis M6; parameters: key: “−” means “Not changed”; “+” means “Spot of substrate is slightly decreased and other products are detected”; “++” means “Spot of substrate is markedly decreased and other products are detected”; “+++” means “Spot of substrate is virtually disappeared and other products are detected”; details: substrate 2% (w/v), one unit/g-substrate enzyme, 40° C., pH 6.0, 24 hours, TLC before and after reaction
Method: Substrate specificity of CMM-forming enzyme of the present invention was investigated using various saccharides as substrates. Substrate solutions were prepared by dissolving maltose, maltotriose, maltotetraose, maltopentaose, maltohexaose, maltoheptaose, neotrehalose, trehalose, kojibiose, nigerose, […] isomaltose, isomaltotriose, panose, isopanose, maltitol, maltotriitol, α-, β- or γ-cyclodextrin, amylose, soluble starch, glycogen, pullulan or dextran into water. Each substrate solution was admixed with acetate buffer (pH 6.0) and CaCl2 to give final concentrations of 20 mM and 1 mM, respectively. […] Substrate concentration was set to 2% (w/v) and followed by the enzyme reaction at 40° C. and pH 6.0 for 24 hours. Action and the specificity of the enzyme on these saccharides were confirmed by analyzing the reaction mixture before and after the reaction by TLC described in Experiment 1.

[1] = Amino-carbonyl reaction with polypeptone; format: physicochemical; details: 5% (w/v) saccharide, 5% (w/v) polypeptone, 120° C., blank subtracted
Method: (§1) As a control, an aqueous solution containing maltose and polypeptone was prepared in the same manner using maltose except for the powdery hydrous crystalline CMM. Four milliliters each of the solution was put in a glass tube, sealed and then heated at 120° C. for 30, 60, or 90 min. After cooling the solutions, the degrees of coloring of the solutions were measured to estimate the degree of amino-carbonyl reaction. As a blank test, a solution containing polypeptone only was heated in the same manner. The degree of coloring was defined as an absorbance at 480 nm using a 1 cm-cell after subtracting the absorbance of the blank test.

[2] = Amino-carbonyl reaction with glycine; format: physicochemical; details: […] (w/v) saccharide, 0.5% (w/v) glycine, pH 8.0, 100° C.
Method: as §1, with “glycine” for “polypeptone”, “100°” for “120°”, “reaction.” for “reaction. As a blank test, a solution containing polypeptone only was heated in the same manner.”, “cm-cell.” for “cm-cell after subtracting the absorbance of the blank test.”

Small intestinal enzymes = experiment: Digestibility by small intestinal enzymes
Description: (§2) 43, 23-29 (1990), the digestibility of CMM by salivary α-amylase, artificial gastric juice, pancreas amylase, and small intestinal enzymes were investigated using the powdery hydrous crystalline CMM, obtained by the method in Experiment 14.

Pancreas α-amylase = experiment: Digestibility by pancreas α-amylase
Description: as §2

Salivary α-amylase = target: T1, Salivary α-amylase (Homo sapiens, UniProt P0DUB6); experiment: Digestibility by salivary α-amylase
T1 sequence (P0DUB6 16-511): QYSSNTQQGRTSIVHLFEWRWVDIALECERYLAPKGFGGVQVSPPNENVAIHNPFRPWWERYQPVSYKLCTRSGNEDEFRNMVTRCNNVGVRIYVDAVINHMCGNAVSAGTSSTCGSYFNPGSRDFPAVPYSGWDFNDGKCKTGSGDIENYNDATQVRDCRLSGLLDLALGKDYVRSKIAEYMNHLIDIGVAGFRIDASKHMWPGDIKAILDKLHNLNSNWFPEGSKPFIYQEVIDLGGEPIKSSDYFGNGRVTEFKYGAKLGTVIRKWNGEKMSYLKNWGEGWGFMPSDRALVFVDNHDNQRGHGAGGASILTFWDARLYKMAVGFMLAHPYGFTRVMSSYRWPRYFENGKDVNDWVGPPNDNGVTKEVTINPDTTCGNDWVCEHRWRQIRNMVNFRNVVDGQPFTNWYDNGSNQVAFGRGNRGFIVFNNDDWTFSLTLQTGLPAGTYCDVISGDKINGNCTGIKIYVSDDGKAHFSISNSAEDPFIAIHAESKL
Description: as §2

[3] = Digestibility by artificial gastric juice
Description: as §2

[4] = Isoelectric point of CMM-forming enzyme; format: physicochemical, Arthrobacter globiformis M6
Method: The purified enzyme preparation of CMM-forming enzyme, obtained by the method in Experiment 4, was subjected to polyacrylamide gel isoelectrofocusing containing 2% (w/v) “AMPHOLINE”, a carrier ampholyte commercialized by Amersham Biosciences, Tokyo, Japan and isoelectric point of CMM-forming enzyme was measured compare with isoelectric point markers, commercialized by Amersham Biosciences, Tokyo, Japan.

[5] = Optimum temperature and optimum pH of the enzyme reaction; format: biochemical, Arthrobacter globiformis M6
Method: The enzyme activity of CMM-forming enzyme of the present invention can be assayed as follows: A substrate solution is prepared by dissolving soluble starch in 50 mM acetate buffer (pH 6.0) containing 2 mM CaCl2 to give a concentration of 2% (w/v). A half milliliter of an enzyme solution is added to 0.5 ml of the substrate solution, and the mixture solution is incubated at 40° C. for 30 min. After stopping the reaction by heating at about 100° C. for 10 min, the reaction mixture is admixed with 4,000 units/g-solid of α-glucosidase and 250 units/g-solid of glucoamylase to hydrolyze remaining soluble starch and by-products, oligosaccharides, and followed by the enzyme treatment at 50° C. for 1 hour. The amount of CMM contained in the treated mixture is determined by HPLC described later in Experiment 1. One unit activity of CMM-forming enzyme is defined as the amount of enzyme which forms one μmole of CMM per minute under the above conditions.
The results are in FIG. 5 (Optimum temperature) and in FIG. 6 (Optimum pH), respectively.

[6] = recombinant enzyme purified from transformant BMB1

Molecule	Action (CMM-forming enzyme)	Degree of coloring (A480 nm) ([1]; heating time 0 min)	Degree of coloring (A480 nm) ([1]; heating time 30 min)	Degree of coloring (A480 nm) ([1]; heating time 60 min)	Degree of coloring (A480 nm) ([1]; heating time 90 min)	Degree of coloring (A480 nm) ([2]; heating time 0 min)	Degree of coloring (A480 nm) ([2]; heating time 30 min)	Degree of coloring (A480 nm) ([2]; heating time 60 min)	Degree of coloring (A480 nm) ([2]; heating time 90 min)	Degradation rate (%) (Small intestinal enzymes)	Degradation rate (%) (Pancreas α-amylase)	Degradation rate (%) (Salivary α-amylase)	Degradation rate (%) [3]	isoelectric point (pI) ([4]; purified enzyme from Arthrobacter globiformis M6, polyacrylamide gel isoelectrofocusing)	isoelectric point [4, 6]	optimum pH ([5]; purified enzyme from M6, reacted at 40° C. for 30 min)	optimum temperature ([5]; purified enzyme from M6, reacted at pH 6.0 for 30 min)	optimum pH [5, 6]	optimum temperature of CMM-forming enzyme activity [5, 6]
OC[C@H]1O[C@H](O[C@H]2[C@H](O)[C@@H](O)C(O)O[C@@H]2CO)[C@H](O)[C@@H](O)[C@@H]1O (mixture of isomers) [Maltose, maltose]	−	0.00	0.10	0.30	0.62	0.00	0.02	0.08	0.17										
OC[C@@H](O)[C@@H](O[C@H]1O[C@H](CO)[C@@H](O)[C@H](O)[C@H]1O)[C@H](O)[C@@H](O)CO [Maltitol, maltitol]	−									4%	0%	0%	0%						
CMM-forming enzyme: enzyme from Arthrobacter globiformis M6 acting on α-1,4 glucans of polymerization degree 3 or higher to form CMM; SEQ ID NO:2 (protein, listed as Arthrobacter globiformis) DPTTSPGPLAEGDVIYQVLVDRFEDGDPTNNDQGDGEYDPSDLGFYHGGDWAGLTDRLDYIADLGVTAIWLSPVSEQQPLSRDGLEASYHGYFTRDFATPNEHFGDRAELQELIDTAHDLGLKMILDVVPNHTADYLAGTSTTYSPSTYKPASPLDDASYFHHAGDCLFNGLETQTQIENCDLGGLDDLDQSNPVVSSHLMSTYKDWVDMGFDGIRVDAARSVPKPWLADFEAEMGVPTFGEVFVGDVDYVSEYQDYEWGVLDFPYFFTVREAFSADTDMNKLGDLFDQDSKYANPNRLETFLDNHDRARFLTWADDNYQRLRSGLTFLLTSRGVPVIYYGTEQADDGNGNPYEVPIANKDNRKDMESFDQNSNLYKHIQRLTAIKAAYPALQVGTQREMWSDTSVYGFSRRVDSTGAEAMTFSSNSWTTQTRTVPLRAESSITVGTTLTNLMNTGDTVTVTAGGVTGKQITVSLGEHESKVYAPGTPVSAYSPEARNTTKIRVHYNVGLGHSIAIRGDEYPFTWTSGRGARNVASDVWEFEVERIPDGETFQFKPLIDDVTWSTGGNFTGTGGDVIDIYPTF														3.6±0.5	about 3.6±0.5	5.5 to 6.5	50 to 55 °C	5.5 to 6.5	50 to 55 °C
